Assay results published in PubChem BioAssay AID602356 (Sanford-Burnham Center for Chemical Genomics, 2012).
Several values for one entry are separate records, joined by “and”; a condition that tells them apart may be missing. Equal values may be shown once. Activity calls are given as the source filed them. No rule for the calls is given here.

Each compound was assayed against Neurotensin receptor type 1 (Homo sapiens) (UniProt P30989) (assay: NTR1 agonists in analog series, SAR follow-up, imaging, image-based, set 3 (AID 602356)). Conditions: NTR1 image-based agonist assay, cellular imaging.
Chain of Neurotensin receptor type 1 (Homo sapiens) (P30989 whole entry, looked up): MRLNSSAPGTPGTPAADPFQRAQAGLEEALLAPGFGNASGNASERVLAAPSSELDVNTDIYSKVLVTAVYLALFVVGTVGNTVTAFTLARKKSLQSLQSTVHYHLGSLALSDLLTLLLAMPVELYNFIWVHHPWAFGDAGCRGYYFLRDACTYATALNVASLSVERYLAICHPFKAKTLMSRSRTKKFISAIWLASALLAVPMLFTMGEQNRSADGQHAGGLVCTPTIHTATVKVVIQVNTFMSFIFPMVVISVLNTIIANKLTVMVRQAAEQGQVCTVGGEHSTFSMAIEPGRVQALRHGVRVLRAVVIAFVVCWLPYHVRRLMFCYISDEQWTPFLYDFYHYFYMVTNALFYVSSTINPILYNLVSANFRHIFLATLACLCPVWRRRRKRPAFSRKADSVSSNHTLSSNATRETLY

Row | Compound | EC50
1 | COc1cccc(OC)c1-c1nc(C(=O)N[C@@H](CC(C)C)C(=O)O)cn1-c1ccc(C)cc1 | > 80 µM (inactive)
2 | COc1cc2c3nnc(-c4ccc(F)cc4)c-3cn(CC3CC3)c2cc1OC | inactive
3 | COc1cc2nc(C3CC3)nc(N3CCN(C(=O)c4ccccc4OC)CC3)c2cc1OC | inactive
4 | COc1ccc(-c2nnc3c4cc(OC)c(OC)cc4n(Cc4ccc(C)cc4)cc2-3)cc1 | 5.21 µM
5 | COc1ccc(-c2nnc3c4ccccc4n(Cc4ccc(F)cc4)cc2-3)cc1 | inactive
6 | COc1ccccc1-c1nc(C(=O)N[C@@H](CC(C)C)C(=O)O)cn1-c1ccnc2cc(Cl)ccc12 | inactive
7 | COc1ccc2c(N3CCN(c4ccccc4OC)CC3)nc(C3CCC3)nc2c1 | inactive
8 | COc1cccc(OC)c1-c1nc(C(=O)N[C@@H](CC(C)C)C(=O)O)cn1-c1cccc2ccccc12 | 2.31 µM and 4.47 µM
9 | COc1ccccc1N1CCN(c2nc(C3CCC3)nc3cc4c(cc23)OCO4)CC1 | inactive
10 | COc1cc2c3nnc(-c4ccccc4)c-3cn(Cc3ccc(C)cc3)c2cc1OC | > 80 µM (inactive)
11 | COc1ccc2c3nnc(-c4ccc(C)cc4)c-3cn(Cc3ccc(F)cc3)c2c1 | 11.2 µM
12 | COc1cc2c3nnc(-c4ccc(C)cc4)c-3cn(Cc3ccc(C)cc3)c2cc1OC | 6.82 µM
13 | c1ccc(Cn2cc3c(-c4ccccc4)nnc-3c3ccccc32)cc1 | inactive
14 | CCc1ccc(-c2nnc3c4cc(OC)c(OC)cc4n(Cc4ccc(F)cc4)cc2-3)cc1 | 9.22 µM
15 | COc1ccccc1-c1nc(C(=O)N[C@@H](CC(C)C)C(=O)O)cn1-c1ccncc1 | > 80 µM (inactive)
16 | COc1cc2c3nnc(-c4ccc(F)cc4)c-3cn(Cc3ccc(F)cc3)c2cc1OC | 11.1 µM
17 | Clc1ccc(-c2nnc3c4cc5c(cc4n(Cc4ccccc4)cc2-3)OCO5)cc1 | > 80 µM (inactive)
18 | COc1ccccc1-c1nc(C(=O)N[C@@H](CC(C)C)C(=O)O)cn1-c1ccnc2ccccc12 | > 80 µM (inactive)
19 | COc1cc2c3nnc(-c4ccc(F)cc4)c-3cn(Cc3ccc(C)cc3)c2cc1OC | 6.9 µM and 6.79 µM
20 | COc1cccc(N2CCN(c3nc(C4CCC4)nc4cc(OC)c(OC)cc34)CC2)c1 | 17.2 µM
21 | COc1cc2c3nnc(-c4ccc(F)cc4)c-3cn(Cc3ccccn3)c2cc1OC | inactive
22 | COc1cccc(OC)c1-c1nc(C(=O)NC2(C(=O)O)C3CC4CC(C3)CC2C4)cn1-c1ccnc2cc(Cl)ccc12 (centres undefined) | inactive
23 | COc1cc2c3nnc(-c4ccc(F)cc4)c-3cn(Cc3ccncc3)c2cc1OC | 18.4 µM
24 | COc1cc2c3nnc(-c4ccc(F)cc4)c-3cn(Cc3cccc(C)c3)c2cc1OC | 6.34 µM and 6.55 µM

Row | Compound | EC50
25 | CCOc1cc2c(N3CCN(c4ccccc4OC)CC3)nc(-c3ccc(OC)c(OC)c3)nc2cc1OC | > 80 µM (inactive)
26 | COc1cc2c3nnc(-c4ccc(F)cc4)c-3cn(Cc3cccc(N(C)C)c3)c2cc1OC | > 80 µM (inactive)
27 | COc1ccc(-c2nnc3c4ccccc4n(Cc4ccc(C)cc4)cc2-3)cc1 | > 80 µM (inactive)
28 | COc1cc2nc(C3CC3)nc(N3CCN(C(=O)OC(C)(C)C)CC3)c2cc1OC | inactive
29 | COc1cc2c3nnc(-c4ccc(Cl)cc4)c-3cn(Cc3ccc(C)cc3)c2cc1OC | 18.1 µM
30 | COc1ccc2nc(C3CC3)nc(N3CCN(c4ccccc4OC)CC3)c2c1 | 4.1 µM
31 | COc1ccccc1CN1CCN(c2nc(C3CC3)nc3cc(OC)c(OC)cc23)CC1 | inactive
32 | COc1cccc(OC)c1-c1nc(C(=O)N[C@@H](CC(C)C)C(=O)O)cn1-c1ccnc2ccccc12 | 3.76 µM
33 | COc1cc2c3nnc(-c4ccc(C)c(C)c4)c-3cn(Cc3ccc(C)cc3)c2cc1OC | 4.9 µM
34 | COc1ccc(-c2nc(C(=O)N[C@@H](CC(C)C)C(=O)O)cn2-c2ccnc3cc(Cl)ccc23)c(OC)c1 | > 80 µM (inactive)
35 | COc1cccc(OC)c1-c1cc(C(=O)O)nn1-c1ccnc2cc(Cl)ccc12 | > 80 µM (inactive)
36 | COc1cc2nc(CCN(C)C)nc(N3CCN(c4ccccc4OC)CC3)c2cc1OC | > 80 µM (inactive)
37 | COc1cc2c3nnc(-c4ccc(F)cc4)c-3cn(Cc3ccccc3N(C)C)c2cc1OC | 4.36 µM and 4.14 µM
38 | COc1cc2nc(C3CC3)nc(N3CCNCC3)c2cc1OC | > 80 µM (inactive)
39 | COc1ccc2c(c1)c1nnc(-c3ccc(F)cc3)c-1cn2Cc1ccccc1 | 9.24 µM
40 | COc1ccc(-c2nnc3c4ccccc4n(Cc4ccccc4)cc2-3)cc1 | inactive
41 | COc1cc2nc(C3CC3)nc(N3CCN(Cc4ccc(C)cc4)CC3)c2cc1OC | inactive
42 | COc1cc2c3nnc(-c4ccc(C)cc4)c-3cn(Cc3ccc(F)cc3)c2cc1OC | 6.4 µM
43 | CCOc1ccccc1N1CCN(c2nc(C3CC3)nc3cc(OC)c(OC)cc23)CC1 | 6.08 µM
44 | COc1ccc2c(c1)c1nnc(-c3ccc(F)cc3)c-1cn2Cc1ccc(C)cc1 | > 80 µM (inactive)
45 | COc1ccc2c3nnc(-c4ccc(C)cc4)c-3cn(Cc3ccccc3)c2c1 | 15.8 µM
46 | COc1cc2nc(C3CCC3)nc(N3CCN(c4ccccc4C)CC3)c2cc1OC | 14.9 µM
47 | COc1cc2c3nnc(-c4ccc(F)cc4)c-3cn(Cc3ccc(Cl)cc3)c2cc1OC | 7.54 µM
48 | CCCc1nc(N2CCN(c3ccccc3OC)CC2)c2cc(OC)c(OC)cc2n1 | 16.6 µM

Row | Compound | EC50
49 | COc1ccc(-c2nnc3c4ccccc4n(CCc4ccccc4)cc2-3)cc1 | inactive
50 | COc1cc2c3nnc(-c4ccc(C)cc4)c-3cn(Cc3ccccc3)c2cc1OC | inactive
51 | COc1cc2nc(C3CCC3)nc(N3CCN(c4ccccc4F)CC3)c2cc1OC | 17.7 µM
52 | COc1ccccc1-c1cc(C(=O)N[C@@H](CC(C)C)C(=O)O)nn1-c1ccnc2cc(Cl)ccc12 | 0.966 µM
53 | Cc1ccc(-c2nnc3c4cc5c(cc4n(Cc4ccc(F)cc4)cc2-3)OCO5)cc1 | 9.43 µM
54 | COc1ccccc1N1CCN(c2nc(C3CCC3)nc3ccccc23)CC1 | inactive
55 | COc1cc2nc(-c3ccccc3)nc(N3CCN(c4ccc(F)cc4)CC3)c2cc1OC | > 80 µM (inactive)
56 | COc1cc2nc(C3CC3)nc(N3CCN(S(=O)(=O)c4ccccc4)CC3)c2cc1OC | > 80 µM (inactive)
57 | COc1cc2c3nnc(-c4ccc(C)c(C)c4)c-3cn(Cc3ccccc3)c2cc1OC | 6.2 µM
58 | COc1ccccc1-c1cc(C(=O)N[C@@H](CC(C)C)C(=O)OC(C)(C)C)nn1-c1ccnc2cc(Cl)ccc12 | 5.01 µM
59 | COc1cc2nc(C3CCC3)nc(N3CCN(c4ccccc4)CC3)c2cc1OC | 12.1 µM
60 | COc1ccc(-c2nnc3c4ccccc4n(Cc4ccc(OC(F)(F)F)cc4)cc2-3)cc1 | inactive
61 | COc1cc2nc(C3CCC3)nc(N3CCN(c4ccccc4Cl)CC3)c2cc1OC | 12.2 µM
62 | Cc1ccc(Cn2cc3c(-c4ccc(Cl)cc4)nnc-3c3cc4c(cc32)OCO4)cc1 | inactive
63 | COc1cc2c3nnc(-c4ccc(F)cc4)c-3cn(Cc3ccccc3)c2cc1OC | 7.24 µM and 7.42 µM
64 | Cc1ccc(-c2nnc3c4cc5c(cc4n(Cc4ccc(F)cc4)cc2-3)OCO5)cc1C | inactive
65 | COc1cc2nc(C3CCCC3)nc(N3CCN(c4ccccc4OC)CC3)c2cc1OC | 5.79 µM
66 | COc1cc2nc(C3CC3)nc(N3CCN(C(=O)c4ccccc4)CC3)c2cc1OC | inactive
67 | COc1cc2c3nnc(-c4ccc(F)cc4)c-3cn(Cc3ccc(C)cc3C)c2cc1OC | 5.82 µM
68 | CCOc1ccc(-c2nnc3c4cc(OC)c(OC)cc4n(Cc4ccccc4)cc2-3)cc1 | 8.92 µM
69 | COc1cc2nc(CC(C)C)nc(N3CCN(c4ccccc4OC)CC3)c2cc1OC | 15.1 µM
70 | Cc1ccc(Cn2cc3c(-c4ccc(C)cc4)nnc-3c3cc4c(cc32)OCO4)cc1 | inactive
71 | CC(C)C[C@H](NC(=O)c1cn(-c2ccncc2)c(-c2ccccc2)n1)C(=O)O | > 80 µM (inactive)
72 | COc1cc2c3nnc(-c4ccc(F)cc4)c-3cn(Cc3cccnc3)c2cc1OC | > 80 µM (inactive)

Row | Compound | EC50
73 | COc1cc2c3nnc(-c4ccccc4)c-3cn(Cc3ccc(F)cc3)c2cc1OC | 16.6 µM
74 | COc1cc2ncc3c(-c4ccc(F)cc4)n[nH]c3c2cc1OC | > 80 µM (inactive)
75 | COc1cc2c3nnc(-c4ccc(F)cc4)c-3cn(Cc3ccccc3F)c2cc1OC | 2.52 µM
76 | COc1cc2nc(C3CCC3)nc(N3CCN(c4ccccn4)CC3)c2cc1OC | inactive
77 | CCc1nc(N2CCN(c3ccccc3OC)CC2)c2cc(OC)c(OC)cc2n1 | inactive
78 | COc1cccc(OC)c1-c1nc(C(=O)N[C@@H](CC(C)C)C(=O)O)cn1-c1ccncc1 | inactive
79 | COc1cc2nc(CC3CC3)nc(N3CCN(c4ccccc4OC)CC3)c2cc1OC | 14.2 µM
80 | COc1ccc(-c2nnc3c4ccccc4n(CC4CC4)cc2-3)cc1 | inactive
81 | CC(C)C[C@H](NC(=O)c1cn(-c2ccnc3cc(Cl)ccc23)c(-c2ccccc2)n1)C(=O)O | inactive
82 | COc1cccc(OC)c1-c1nc(C(=O)N[C@@H](CC(C)C)C(=O)O)cn1-c1ccnc2cc(Cl)ccc12 | 2.01 µM and 4.14 µM
83 | COc1ccc(N2CCN(c3nc(C4CCC4)nc4cc(OC)c(OC)cc34)CC2)c(OC)c1 | inactive
84 | COc1ccc(Cn2cc3c(-c4ccc(OC)cc4)nnc-3c3ccccc32)cc1 | > 80 µM (inactive)
85 | COc1cccc(OC)c1-c1cc(C(=O)N[C@@H](CC(C)C)C(=O)O)nn1-c1ccnc2cc(Cl)ccc12 | 0.232 µM
86 | COc1cc2nc(-c3ccccc3)nc(N3CCN(c4ccc(Cl)cc4)CC3)c2cc1OC | > 80 µM (inactive)
87 | COc1cc2c3nnc(-c4ccc(Cl)cc4)c-3cn(Cc3ccccc3)c2cc1OC | 4.15 µM
88 | CCc1ccc(-c2nnc3c4cc(OC)c(OC)cc4n(Cc4ccccc4)cc2-3)cc1 | inactive
89 | COc1cccc(OC)c1-c1nc(C(=O)N[C@H](CC(C)C)C(=O)O)cn1-c1ccnc2cc(Cl)ccc12 | 9.41 µM
90 | Fc1ccc(Cn2cc3c(-c4ccc(Cl)cc4)nnc-3c3cc4c(cc32)OCO4)cc1 | 9.12 µM
91 | COc1cc2nc(C3CCC3)nc(N3CCN(c4ccccc4[N+](=O)[O-])CC3)c2cc1OC | inactive
92 | COc1cc2nc(C(C)C)nc(N3CCN(c4ccccc4OC)CC3)c2cc1OC | 7.65 µM
93 | COc1cc2nc(CCN3CCN(c4ccccc4OC)CC3)nc(N3CCN(c4ccccc4OC)CC3)c2cc1OC | inactive
94 | CCn1cc2c(-c3ccc(F)cc3)nnc-2c2cc(OC)c(OC)cc21 | > 80 µM (inactive)
